Reference: US12139478B2, “Compounds, compositions and methods” (Denali Therapeutics Inc., priority 2017, dated 2024)
Read-outs that look alike come from different tables or passages of the source.

Tested on: ATF4 translation
Assay: ATF4 Nano Luciferase reporter integrated stress response (ISR) assay in H4 ATF4-NLuc cells
Assay type: cell-based, human
Details: Homo sapiens, 0.5 h, H4 ATF4-NLuc (clone 17) cells, compound 30 minutes, then sodium arsenite for 6 additional hours, luminescence readout
Text: Cellular stress leads to activation of the integrated stress response pathway through one of four eukaryotic initiation factor 2a kinases and halts global translation, while allowing for the translation of select transcripts like ATF4 (activating transcription factor 4) that are important for the response to cellular stress. During normal conditions, small open reading frames (ORFs) in the 5′ UTR of ATF4 occupy the ribosome and prevent translation of the coding sequence of ATF4. During stress conditions however, the ribosome scans past these upstream ORFs and preferentially begins translation at the coding sequence of ATF4. In this way, the translation, and thus protein level of ATF4 is a readout of ISR pathway activation. Thus, a fusion of the uORFs and the beginning of the coding sequence of ATF to a common cellular reporter like nano-luciferase allows for a sensitive and high-throughput readout of ISR pathway activity.
Compounds as provided herein were tested in the following assay. The ATF4 Nano Luciferase reporter was constructed by fusing the human full length 5′ untranslated region (5′-UTR) and a small portion of the coding sequence of the ATF4 gene upstream of the Nano Luciferase (NLuc) coding sequence lacking it's start codon. Specifically, nucleotides +1 through +364 (relative to the transcriptional start site) of ATF4 transcript variant 2 (NCBI NM_182810.2) flanked 5′ by EcoRI and 3′ by BamHI restriction enzyme sites were synthesized and cloned into the EcoRI/BamHI cloning sites of pLVX-EF1a-IRES-Puro lentivirus vector (Clontech). Lentiviral particles were produced with Lenti-X single shots (VSV-G, Clontech) according to the manufacturer's instructions and used to transduce a human H4 neuroglioma cell line (ATCC HTB-148). H4 cells were selected with 1.25 μg/mL Puromycin, and clonal cell lines generated by limiting dilution. We utilized this cell line to generate an integrated stress response (ISR) assay to evaluate the activity of ISR pathway inhibitors via luminescence readout. The H4 ATF4-NLuc (clone 17) cell line is plated at a density of […] in 96-well or 384-well respectively in DMEM+[…]. 24-hours later test compounds diluted in dimethyl sulfoxide (DMSO) are added for 30 minutes at 37° C., followed by ISR pathway activation with […] sodium arsenite aqueous solution for 6 additional hours. Nano Glo luciferase reagent (N1150, Promega) is added according to manufacturer instructions and the luminescence signal (corresponding to the level of ATF4 translation and thus ISR pathway activation) is read with a standard plate reader with luminescence detection capabilities. […] In the tables below, activity of the tested compounds is provided, and in Table 3 as follows: […]; ++=IC50 1-10 μM; +=IC50>10 μM.

[1] = read-out: Biological Example 1 (ATF4 translation, IC50 nM)

| Compound | IC50 (read-out: Activity) | IC50 [1] |
| --- | --- | --- |
| O=C(COc1ccc(C(F)(F)F)cc1)N[C@@H]1CC[C@@H](c2nnc([C@H]3C[C@@H](OC(F)(F)F)C3)o2)OC1 [Example 40, N-[(3R,6S)-6-[5-[3-cis-(trifluoromethoxy)cyclobutyl]-1,3,4-oxadiazol-2-yl]tetrahydropyran-3-yl]-2-[4-(trifluoromethyl)phenoxy]acetamide] | < 1000 nM | 2.4 nM |
| O=C(COc1ccc(Cl)cc1)N[C@H]1CO[C@H](c2nnc([C@H]3C[C@@H](OC(F)(F)F)C3)o2)CC1(F)F [Example 41, N-[(3S,6S)-4,4-difluoro-6-[5-[3-cis-(trifluoromethoxy)cyclobutyl]-1,3,4-oxadiazol-2-yl]tetrahydropyran-3-yl]-2-(4-chlorophenoxy)acetamide] | < 1000 nM | 13.5 nM |
| O=C(N[C@@H]1CC[C@@H](c2nnc(C3CC(OC(F)(F)F)C3)o2)OC1)c1cn2ccc(Br)cc2n1 (stereo partly drawn) [Example 42, 7-bromo-N-((3R,6S)-6-(5-(3-cis-(trifluoromethoxy)cyclobutyl)-1,3,4-oxadiazol-2-yl)tetrahydro-2H-pyran-3-yl)imidazo[1,2-a]pyridine-2-carboxamide] | < 1000 nM |  |
| O=C(N[C@@H]1CC[C@@H](c2nnc(C3CC(OC(F)(F)F)C3)o2)OC1)c1nc2cc(Cl)ccc2s1 (stereo partly drawn) [Example 43, 5-chloro-N-((3R,6S)-6-(5-(3-cis-(trifluoromethoxy)cyclobutyl)-1,3,4-oxadiazol-2-yl)tetrahydro-2H-pyran-3-yl)benzo[d]thiazole-2-carboxamide] | < 1000 nM |  |
| O=C(N[C@@H]1CC[C@@H](c2nnc(C3CC(OC(F)(F)F)C3)o2)OC1)c1cc2ccc(Cl)cc2cn1 (stereo partly drawn) [Example 44, 7-chloro-N-((3R,6S)-6-(5-(3-cis-(trifluoromethoxy)cyclobutyl)-1,3,4-oxadiazol-2-yl)tetrahydro-2H-pyran-3-yl)isoquinoline-3-carboxamide] | < 1000 nM |  |
| O=C(N[C@@H]1CC[C@@H](c2nnc(C3CC(OC(F)(F)F)C3)o2)OC1)C1CCc2cc(Cl)ccc2O1 (stereo partly shown) [Example 45] | < 1000 nM |  |
| O=C(COc1ccc(Cl)cc1)N[C@@H]1CC[C@@H](C(O)COC2CC(OC(F)(F)F)C2)OC1 (stereo partly shown) [Example 46] | < 1000 nM |  |
| O=C(COC1CC(OC(F)(F)F)C1)NC12CCC(c3cc(-c4ccc(Cl)c(F)c4)no3)(CC1)OC2 (stereo not shown) [Example 47] | < 1000 nM |  |
| O=C(COC1CC(OC(F)(F)F)C1)NC12CCC(c3cnn(-c4ccc(Cl)c(F)c4)c3)(CC1)OC2 (stereo not shown) [Example 48] | < 1000 nM |  |
| O=C(COC1CC(OC(F)(F)F)C1)NC12CCC(C3CC(c4ccc(Cl)c(F)c4)=NO3)(CC1)OC2 (stereo not shown) [Example 49] | > 10000 nM |  |
| O=C(COC1CC(OC(F)(F)F)C1)N[C@@H]1CC[C@@H](c2cc(-c3ccc(Cl)c(F)c3)no2)OC1 (stereo partly shown) [Example 50] | < 1000 nM | 38 nM |
| O=C(N[C@@H]1CC[C@@H](c2nnc(C3CC(OC(F)(F)F)C3)o2)OC1)N1CCC(OC(F)(F)F)C1 (stereo partly shown) [Example 51] | < 1000 nM |  |
| O=C(COC1CC(OC(F)(F)F)C1)N[C@@H]1CC[C@@H](c2ccn(-c3ccc(Cl)cc3)n2)OC1 (stereo partly shown) [Example 52] | < 1000 nM | 43 nM |
| O=C(COc1ccc(F)cc1)N[C@@H]1CC[C@@H](c2noc(C3CC(OC(F)(F)F)C3)n2)OC1 (stereo partly shown) [Example 53] | < 1000 nM |  |
| O=C(COC1CC(OC(F)(F)F)C1)N[C@@H]1CC[C@@H](c2cc(-c3ccc(Cl)cc3)no2)OC1 (stereo partly shown) [Example 54] | < 1000 nM |  |
| O=C(COc1ccc(Cl)c(F)c1)N[C@@H]1CC[C@@H](c2nnc(COC(F)(F)F)o2)OC1 [Example 55] |  | 22.7 nM |
| O=C(N[C@@H]1CC[C@@H](c2nnc(C3CC(OC(F)(F)F)C3)o2)OC1)c1ccc2cc(Cl)ccc2n1 (stereo partly drawn) [Example 56, 6-chloro-N-[(3R,6S)-6-[5-[3-cis-(trifluoromethoxy)cyclobutyl]-1,3,4-oxadiazol-2-yl]tetrahydropyran-3-yl]quinoline-2-carboxamide] | < 1000 nM |  |
| O=C(N[C@@H]1CC[C@@H](c2nnc(C3CC(OC(F)(F)F)C3)o2)OC1)c1ccc2cc(F)ccc2n1 (stereo partly drawn) [Example 57, 6-fluoro-N-((3R,6S)-6-(5-(3-cis-(trifluoromethoxy)cyclobutyl)-1,3,4-oxadiazol-2-yl)tetrahydro-2H-pyran-3-yl)quinoline-2-carboxamide] | < 1000 nM |  |
| O=C(COc1ccc(Cl)c(F)c1)N[C@@H]1CC[C@@H](c2nc([C@H]3C[C@@H](OC(F)(F)F)C3)no2)OC1 [Example 58, 2-(4-chloro-3-fluorophenoxy)-N-((3R,6S)-6-(3-(3-cis-(trifluoromethoxy)cyclobutyl)-1,2,4-oxadiazol-5-yl)tetrahydro-2H-pyran-3-yl)acetamide] | < 1000 nM | 3.7 nM |
| O=C(N[C@H]1CO[C@H](c2nnc(C3CC(OC(F)(F)F)C3)o2)CC1(F)F)c1ccc2cc(F)ccc2n1 (stereo partly drawn) [Example 59, N-((3S,6S)-4,4-difluoro-6-(5-(3-cis-(trifluoromethoxy)cyclobutyl)-1,3,4-oxadiazol-2-yl)tetrahydro-2H-pyran-3-yl)-6-fluoroquinoline-2-carboxamide] | < 1000 nM |  |
| O=C(N[C@@H]1CC[C@@H](c2nnc(C3CC(OC(F)(F)F)C3)o2)OC1)c1ccc2cc(C(F)(F)F)ccc2n1 (stereo partly drawn) [Example 60, N-((3R,6S)-6-(5-(3-cis-(trifluoromethoxy)cyclobutyl)-1,3,4-oxadiazol-2-yl)tetrahydro-2H-pyran-3-yl)-6-(trifluoromethyl)quinoline-2-carboxamide] | < 1000 nM | 3.5 nM |
| O=C(COc1ccc(C(F)(F)F)cc1)N[C@H]1CO[C@H](c2nnc(C3CC(OC(F)(F)F)C3)o2)CC1(F)F (stereo partly drawn) [Example 61, N-((3S,6S)-4,4-difluoro-6-(5-(3-cis-(trifluoromethoxy)cyclobutyl)-1,3,4-oxadiazol-2-yl)tetrahydro-2H-pyran-3-yl)-2-(4-(trifluoromethyl)phenoxy)acetamide] | < 1000 nM | 14.4 nM |
| O=C(COc1ccc(Cl)c(F)c1)N[C@H]1CO[C@H](c2nnc(C3CC(OC(F)(F)F)C3)o2)CC1(F)F (stereo partly drawn) [Example 62, 2-(4-chloro-3-fluorophenoxy)-N-((3S,6S)-4,4-difluoro-6-(5-(3-cis-(trifluoromethoxy)cyclobutyl)-1,3,4-oxadiazol-2-yl)tetrahydro-2H-pyran-3-yl)acetamide] | < 1000 nM |  |
| O=C(N[C@@H]1CC[C@@H](c2nnc(C3CC(OC(F)(F)F)C3)o2)OC1)[C@@H]1CCc2cc(F)ccc2O1 (stereo partly drawn) [Example 66, 6-fluoro-N-((3R,6S)-6-(5-(3-cis-(trifluoromethoxy)cyclobutyl)-1,3,4-oxadiazol-2-yl)tetrahydro-2H-pyran-3-yl)chroman-2-carboxamide] | < 1000 nM |  |
| O=C(COc1ccc(Cl)cc1)N[C@H]1CO[C@H](c2nnc(C3CC(OC(F)(F)F)C3)o2)C[C@@H]1F (stereo partly drawn) [Example 67, 2-(4-chlorophenoxy)-N-((3S,4S,6S)-4-fluoro-6-(5-(3-cis-(trifluoromethoxy)cyclobutyl)-1,3,4-oxadiazol-2-yl)tetrahydro-2H-pyran-3-yl)acetamide] | < 1000 nM | 3.1 nM |
| O=C(COc1ccc(Cl)cc1)N[C@H]1CO[C@H](c2nnc(C3CC(OC(F)(F)F)C3)o2)[C@@H](F)C1 (stereo partly drawn) [Example 68, 2-(4-chlorophenoxy)-N-((3R,5S,6R)-5-fluoro-6-(5-(3-cis-(trifluoromethoxy)cyclobutyl)-1,3,4-oxadiazol-2-yl)tetrahydro-2H-pyran-3-yl)acetamide] | < 1000 nM |  |
| O=C(N[C@@H]1CC[C@@H](c2nnc(C3CC(OC(F)(F)F)C3)o2)OC1)c1ccc2cc(F)c(F)cc2n1 (stereo partly drawn) [Example 75, 6,7-difluoro-N-((3R,6S)-6-(5-(3-cis-(trifluoromethoxy)cyclobutyl)-1,3,4-oxadiazol-2-yl)tetrahydro-2H-pyran-3-yl)quinoline-2-carboxamide] | < 1000 nM | 8.9 nM |
| O=C(N[C@@H]1CC[C@@H](c2nnc(C3CC(OC(F)(F)F)C3)o2)OC1)c1ccc2c(F)c(F)ccc2n1 (stereo partly shown) [Example 76] | < 1000 nM |  |
